Laboratory results as given in paper PMC10004559, “Identification of residues involved in allosteric signal transmission from amino acid binding site of pyruvate kinase muscle isoform 2” (PLOS ONE, 2023).
Where “and” joins values, the source holds several entries; their conditions need not be identical. Equal values may be shown once. Read-outs that look alike come from different tables or passages of the source.

Legend:
PKM2 R106A [1] = target: T1, PKM2 R106A (Homo sapiens, UniProt P14618, R106A); assay: Gel-filtration study of oligomeric state; conditions: 0.1 mg/ml PKM2 R106A, 10 mM AA
T1 construct: made in house; host or cells: E. coli BL21(DE3) pLysS
Description: (§1) The flow rate was kept constant at 0.5 ml/min using an AKTA Pure FPLC system (GE Healthcare Life Sciences, Marlborough, MA). All AA concentrations used in the experiments were fixed at 10 mM. Column calibration was conducted using gel-filtration molecular weight standards (Bio-Rad) containing bovine thyroglobulin (670 kDa), bovine γ-globulin (158 kDa), chicken ovalbumin (44 kDa), horse myoglobin (17 kDa), and vitamin B12 (1.35 kDa). The eluted protein peak was observed using UV absorbance at 280 nm. To normalize the lowest and highest intensity value, they were set to 0% and 100%, respectively, which was plotted against elution volume in GraphPad Prism (San Diego, CA).

PKM2 N75L [2] = target: T2, PKM2 N75L (Homo sapiens, UniProt P14618, N75L); assay: Gel-filtration study of oligomeric state; conditions: 0.1 mg/ml PKM2 N75L, 10 mM AA
T2 construct: made in house; host or cells: E. coli BL21(DE3) pLysS
Description: as §1

PKM2 R106A [3] = target: T1, PKM2 R106A; assay: Ligand binding assay, intrinsic tryptophan fluorescence quenching; conditions: for weakening of ADP binding affinity versus absence of any AAs: PKM2 R106A in the presence of the labelled AA; for decrease of affinity for the AA relative to wtPKM2: PKM2 R106A versus wtPKM2
Description: (§2) All ligand binding studies were conducted in a buffer containing 1.6 μM enzyme dissolved in 20 mM Tris-HCl (pH 7.5) and 150 mM KCl. […] The decrease of intrinsic tryptophan fluorescence with increasing substrate concentration was measured using a Cary Eclipse Fluorescence Spectrophotometer (Agilent Technologies, Santa Clara, CA). To determine the binding affinity of wtPKM2 and the variants for the AAs mentioned previously, the enzymes were dissolved in the buffer followed by monitoring fluorescence quenching as the AA concentration was increased. The wavelength used to excite PKM2 was set at 295 nm, while the emission wavelength was 340 nm with slit widths of 5 and 10 nm, respectively. The fluorescence intensity values were used to calculate fractional saturation, which was fitted to the one-site specific binding Eq (3), or the Hill Eq (4) using GraphPad Prism (San Diego, CA), Y=Bmax×X/Kd+X (3) Y=Bmax×x^h/Kdh+x^h (4) where Bmax is maximum binding, Y is fractional saturation, h is the Hill coefficient, Kd is dissociation constant, and X is ligand concentration.

PKM2 N75L [4] = target: T2, PKM2 N75L; assay: PKM2-LDH coupled pyruvate kinase activity assay; assay type: biochemical; conditions: 4200 nM PKM2 N75L in presence of 2 mM of the labelled AA; PEP 0.025–8 mM, ADP 0.8 mM
Description: (§3) The decrease in absorbance at 340 nm was recorded for a minute to monitor the progress of the reactions.

PKM2 N70D [5] = target: T3, PKM2 N70D (Homo sapiens, UniProt P14618, N70D); assay: PKM2-LDH coupled pyruvate kinase activity assay; conditions: 65 nM PKM2 N70D in presence of 2 mM of the labelled AA; PEP 0.025–8 mM, ADP 0.8 mM
Description: as §3

PKM2 R106A [6] = target: T1, PKM2 R106A; assay: PKM2-LDH coupled pyruvate kinase activity assay; assay type: biochemical; conditions: for Vmax / kcat: 50 nM PKM2 R106A in presence of 2 mM of the labelled AA (Val 10 mM), PEP 0.025–8 mM, ADP 0.8 mM, Cys data fitted with allosteric sigmoidal equation; for decrease of catalytic efficiency of PKM2 R106A: in the presence of Val (10 mM) and Cys (2 mM), versus no AA
Description: as §3

wtPKM2 [7] = target: T4, wtPKM2 (Homo sapiens, UniProt P14618); design: method as in PMID 32144209; conditions: wtPKM2 in the presence of Val; cited from earlier work
T4 construct: made in house; host or cells: E. coli BL21(DE3) pLysS

PKM2 N70D [8] = target: T3, PKM2 N70D; assay: Gel-filtration study of oligomeric state; design: made in house; host or cells: E. coli BL21(DE3) pLysS; conditions: 0.1 mg/ml PKM2 N70D, 10 mM AA
Description: as §1

wtPKM2 [9] = target: T4, wtPKM2; assay: PKM2-LDH coupled pyruvate kinase activity assay; assay type: biochemical; conditions: ADP 0.8 mM; for Vmax / kcat: 10 nM wtPKM2 in presence of 2 mM of the labelled AA, PEP varied
Description: as §3

wtPKM2 [10] = target: T4, wtPKM2; conditions: cited from earlier work
wtPKM2 [11] = target: T4, wtPKM2; assay: Gel-filtration study of oligomeric state; conditions: 0.1 mg/ml wtPKM2, 10 mM AA
Description: as §1

PKM2 N75L [12] = target: T2, PKM2 N75L; assay: Ligand binding assay, intrinsic tryptophan fluorescence quenching; conditions: 1.6 μM PKM2 N75L, no AA ligand; read-out: Kd, ADP as titrant
Description: The decrease of intrinsic tryptophan fluorescence with increasing substrate concentration was measured using a Cary Eclipse Fluorescence Spectrophotometer (Agilent Technologies, Santa Clara, CA). To determine the binding affinity of wtPKM2 and the variants for the AAs mentioned previously, the enzymes were dissolved in the buffer followed by monitoring fluorescence quenching as the AA concentration was increased. The wavelength used to excite PKM2 was set at 295 nm, while the emission wavelength was 340 nm with slit widths of 5 and 10 nm, respectively. The fluorescence intensity values were used to calculate fractional saturation, which was fitted to the one-site specific binding Eq (3), or the Hill Eq (4) using GraphPad Prism (San Diego, CA), Y=Bmax×X/Kd+X (3) Y=Bmax×x^h/Kdh+x^h (4) where Bmax is maximum binding, Y is fractional saturation, h is the Hill coefficient, Kd is dissociation constant, and X is ligand concentration.

PKM2 N70D [13] = target: T3, PKM2 N70D; assay: as above; design: made in house; host or cells: E. coli BL21(DE3) pLysS; conditions: no AA ligand, read-out: Kd, ADP as titrant
Description: as §2

[14] = 1.6 μM PKM2 R106A, read-out: Kd for the AA (AA as titrant)
[15] = 2 mM AA, 10 nM enzyme, PEP 0.15–8 mM, versus no AA

T4 sequence (P14618 whole entry): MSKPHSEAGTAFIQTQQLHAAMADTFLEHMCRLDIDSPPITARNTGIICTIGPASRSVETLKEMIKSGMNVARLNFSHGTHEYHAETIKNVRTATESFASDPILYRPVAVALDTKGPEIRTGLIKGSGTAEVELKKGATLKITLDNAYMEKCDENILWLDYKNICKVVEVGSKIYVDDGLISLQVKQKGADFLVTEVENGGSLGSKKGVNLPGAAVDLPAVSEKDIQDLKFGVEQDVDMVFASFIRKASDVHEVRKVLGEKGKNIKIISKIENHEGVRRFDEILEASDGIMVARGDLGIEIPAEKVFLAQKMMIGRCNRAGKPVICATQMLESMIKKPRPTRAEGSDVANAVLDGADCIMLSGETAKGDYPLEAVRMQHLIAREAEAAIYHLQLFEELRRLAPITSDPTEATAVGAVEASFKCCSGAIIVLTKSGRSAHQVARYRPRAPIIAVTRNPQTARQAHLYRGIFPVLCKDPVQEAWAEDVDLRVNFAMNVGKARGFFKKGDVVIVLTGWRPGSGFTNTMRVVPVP
T3 sequence (P14618 whole entry N70D): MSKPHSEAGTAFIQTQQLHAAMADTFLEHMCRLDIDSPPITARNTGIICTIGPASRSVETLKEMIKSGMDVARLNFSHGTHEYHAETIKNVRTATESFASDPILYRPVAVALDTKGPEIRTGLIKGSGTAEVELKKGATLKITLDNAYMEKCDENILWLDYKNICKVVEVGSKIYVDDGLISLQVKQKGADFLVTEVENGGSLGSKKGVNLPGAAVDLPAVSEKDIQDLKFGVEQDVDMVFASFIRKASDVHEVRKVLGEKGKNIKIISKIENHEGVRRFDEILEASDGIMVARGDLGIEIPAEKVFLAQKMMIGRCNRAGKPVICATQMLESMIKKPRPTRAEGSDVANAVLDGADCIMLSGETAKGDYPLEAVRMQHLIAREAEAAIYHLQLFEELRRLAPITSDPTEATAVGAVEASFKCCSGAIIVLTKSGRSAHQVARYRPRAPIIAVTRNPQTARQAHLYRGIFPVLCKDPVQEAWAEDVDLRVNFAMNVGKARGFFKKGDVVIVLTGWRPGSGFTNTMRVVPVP
T1 sequence (P14618 whole entry R106A): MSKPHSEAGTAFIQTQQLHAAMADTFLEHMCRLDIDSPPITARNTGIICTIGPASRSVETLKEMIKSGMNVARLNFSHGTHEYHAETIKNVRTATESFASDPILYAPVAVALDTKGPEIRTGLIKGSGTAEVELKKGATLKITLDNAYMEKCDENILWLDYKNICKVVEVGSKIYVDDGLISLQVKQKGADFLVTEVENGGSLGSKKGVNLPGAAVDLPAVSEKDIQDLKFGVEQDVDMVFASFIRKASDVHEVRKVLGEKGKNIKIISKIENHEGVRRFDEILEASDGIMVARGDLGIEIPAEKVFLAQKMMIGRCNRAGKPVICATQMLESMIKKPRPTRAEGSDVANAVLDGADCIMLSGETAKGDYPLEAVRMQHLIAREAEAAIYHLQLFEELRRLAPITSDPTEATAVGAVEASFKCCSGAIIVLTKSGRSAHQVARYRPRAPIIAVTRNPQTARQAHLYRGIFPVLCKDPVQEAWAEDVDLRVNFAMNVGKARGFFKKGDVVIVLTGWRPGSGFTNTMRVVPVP
T2 sequence (P14618 whole entry N75L): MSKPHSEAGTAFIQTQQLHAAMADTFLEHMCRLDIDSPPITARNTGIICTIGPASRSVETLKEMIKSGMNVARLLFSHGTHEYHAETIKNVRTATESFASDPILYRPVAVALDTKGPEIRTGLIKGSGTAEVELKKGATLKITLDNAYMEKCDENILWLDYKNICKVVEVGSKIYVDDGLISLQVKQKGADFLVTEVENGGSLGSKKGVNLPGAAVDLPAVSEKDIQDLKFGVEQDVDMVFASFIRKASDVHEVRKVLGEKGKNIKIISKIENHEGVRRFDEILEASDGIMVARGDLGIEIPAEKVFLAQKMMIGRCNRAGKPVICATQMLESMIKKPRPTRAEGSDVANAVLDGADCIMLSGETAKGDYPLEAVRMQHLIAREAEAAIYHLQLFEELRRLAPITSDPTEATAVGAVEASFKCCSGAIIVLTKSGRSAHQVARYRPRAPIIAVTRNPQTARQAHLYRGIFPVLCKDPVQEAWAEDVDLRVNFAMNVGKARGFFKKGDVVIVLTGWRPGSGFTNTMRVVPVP

| Compound | Kd (PKM2 R106A [3]; [14]) | decrease of affinity for the AA relative to wtPKM2 (PKM2 R106A [3]) | Vmax (PKM2 N75L [4]) | kcat (PKM2 N75L [4]) | Vmax (PKM2 N70D [5]) | kcat (PKM2 N70D [5]) | Vmax (PKM2 R106A [6]) | kcat (PKM2 R106A [6]) | oligomeric state change (PKM2 N70D [8]) | Vmax (wtPKM2 [9]) | kcat (wtPKM2 [9]) | other results |
| --- | --- | --- | --- | --- | --- | --- | --- | --- | --- | --- | --- | --- |
| CC(C)[C@H](N)C(=O)O [Val, valine] | ~1600 µM | 2–4 fold | 34 ± 2 µM/min | 0.008±0.0 ×10^3 min^-1 | 324 ± 37 µM/min | 4.9±0.6 ×10^3 min^-1 | 346 ± 12 µM/min | 6.9±0.2 ×10^3 min^-1 | did not change the oligomeric state | 74 ± 5 µM/min | 7.4±0.5 ×10^3 min^-1 | oligomeric state change (PKM2 R106A [1]): resulted in a mixture of tetramer and dimer/monomer equilibrium; oligomeric state change (PKM2 N75L [2]): the dimer/monomer fraction increased; weakening of ADP binding affinity versus absence of any AAs (PKM2 R106A [3]): ~ 10 fold; decrease of catalytic efficiency of PKM2 R106A (PKM2 R106A [6]): 2–7 fold; oligomeric state change (wtPKM2 [7]): shift from an active tetramer to a mixture of tetramer and dimer/monomer equilibrium; decrease of kcat/Km of wtPKM2 (wtPKM2 [9]; [15]): ~ 4 fold |
| N[C@@H](CC(=O)O)C(=O)O [Asp, aspartate] | ~70 µM | – | 51 ± 3 µM/min | 0.012±0.0 ×10^3 min^-1 | 307 ± 10 µM/min | 4.7±0.1 ×10^3 min^-1 | 295 ± 6 µM/min | 5.9±0.1 ×10^3 min^-1 | dimer/monomer fraction decreased | 104 ± 2 µM/min | 10.4±0.2 ×10^3 min^-1 | – |
| O=C(COP(=O)(O)O)[C@@H](O)[C@H](O)[C@H](O)COP(=O)(O)O [FBP, fructose-1,6-bisphosphate] | – | – | – | – | – | – | – | – | – | – | – | Kd (wtPKM2 [10]; wtPKM2, read-out: Kd for FBP): 0.00098 µM and 0.001 µM |
| N[C@@H](CS)C(=O)O [Cys, cysteine] | 36 µM | 2–4 fold | 33 ± 3 µM/min | 0.008±0.0 ×10^3 min^-1 | 334 ± 15 µM/min | 5.1±0.2 ×10^3 min^-1 | 291 ± 9 µM/min | 5.8±0.2 ×10^3 min^-1 | did not change the oligomeric state | 65 ± 7 µM/min | 6.5±0.7 ×10^3 min^-1 | oligomeric state change (PKM2 R106A [1]): resulted in a mixture of tetramer and dimer/monomer equilibrium; oligomeric state change (PKM2 N75L [2]): the dimer/monomer fraction increased; oligomeric state change (wtPKM2 [11]): shift from an active tetramer to a mixture of tetramer and dimer/monomer equilibrium; weakening of ADP binding affinity versus absence of any AAs (PKM2 R106A [3]): ~ 10 fold; decrease of catalytic efficiency of PKM2 R106A (PKM2 R106A [6]): 2–7 fold; decrease of kcat/Km of wtPKM2 (wtPKM2 [9]; [15]): ~ 4 fold |
| Nc1ncnc2c1ncn2[C@@H]1O[C@H](COP(=O)(O)OP(=O)(O)O)[C@@H](O)[C@H]1O [ADP, adenosine diphosphate] | – | – | – | – | – | – | – | – | – | – | – | Kd (PKM2 R106A [3]; 1.6 μM PKM2 R106A, no AA ligand, read-out: Kd, ADP as titrant): 257 ± 24 µM; Kd (PKM2 N75L [12]): 449 ± 48 µM; Kd (wtPKM2 [10]; […] wtPKM2, no AA ligand, marked (2) in S2 Table, read-out: Kd, ADP as titrant): 237 ± 54 µM; Kd (PKM2 N70D [13]): 644 ± 154 µM |
| C=C(OP(=O)(O)O)C(=O)O [PEP, phosphoenolpyruvate] | – | – | – | – | – | – | – | – | – | – | – | Kd (wtPKM2 [10]; read-out: Kd, PEP as titrant, […] wtPKM2, no AA ligand, marked (2) in S2 Table): 10 ± 2 µM |
| NC(=O)C[C@H](N)C(=O)O [Asn, asparagine] | – | 2–4 fold | 50 ± 2 µM/min | 0.012±0.0 ×10^3 min^-1 | 340 ± 8 µM/min | 5.2±0.3 ×10^3 min^-1 | 318 ± 8 µM/min | 6.3±0.2 ×10^3 min^-1 | dimer/monomer fraction decreased | 113 ± 4 µM/min | 11.3±0.4 ×10^3 min^-1 | Kd (PKM2 R106A [3]; […] PKM2 R106A, read-out: Kd for the AA (AA as titrant)): 42 ± 10 µM; increase of kcat/Km of wtPKM2 (wtPKM2 [9]; [15]): ~ 8 fold |
